The source of these data is patent US10160812B2, “Bispecific HER2 antibodies” (MedImmune, LLC, priority 2014, dated 2018).

“Also recorded” adds a separate entry of the source.

In one experiment the test system is MDA-MB-361 model. The experiment can be described thus: CBX xenograft tumor model. The format is in vivo, Athymic nude mice. The conditions noted are these: MDA-MB-361 CBX, 3 mg/kg. The method, then:
(§1) All mouse experiments were carried out in compliance with the guidelines published by the Association for Assessment and Accreditation of Laboratory Animal Care (AAALAC) and protocols approved by the MedImmune Institutional Animal Care and Use Committee. Athymic nude mice between 4-8 weeks of age were used in the studies. In subcutaneous CBX models, animals were injected unilaterally on the right flank with tumor cells harvested from culture at a specific passage lot. In orthotopic CBX models, xenografts were established by injecting 5×10^6 cells per mouse (suspended in 50% matrigel) into the mammary fat pad on the right flank of animals. In PDX models, animals are implanted unilaterally on the flank with tumor fragments harvested from host animals each implanted from a specific passage lot. Pre-study tumor volumes were recorded for each experiment beginning approximately one week prior to its estimated start date. When tumors reach the appropriate tumor volume initiation (TVI) range (typically 150-250 mm^3), animals are randomized into treatment and control groups and dosing initiated. […] Animals were observed daily and tumor dimensions and body weights were measured and recorded twice weekly. Tumor volumes are calculated using the following formula: tumor volume=π÷6 (length×width^2). […]

The next experiment relates to MDA-MB-468. The experiment can be described thus: In vitro cytotoxic activity (Cell Titer Glo). The format is cell-based, human. Conditions: MDA-MB-468, 3 to 4 days.
The next experiment deals with MCF7-GTU. The experiment is described as follows: In vitro cytotoxic activity (Cell Titer Glo). The format is cell-based, human. Conditions: 3 to 4 days. For orientation: In ATP-based viability assays light output follows the ATP content of the culture.
The next experiment has as its system SKBR-3. The experiment can be described thus: In vitro cytotoxic activity (Cell Titer Glo). The conditions noted are these: SKBR-3, 3 to 4 days; read-out: In vitro potency (EC50 in pM). In kind it is cell-based, human.
Another experiment concerns ST225 model. The experiment can be described thus: PDX tumor model (HER2-3+ breast cancer). Conditions: Bs2-4T at 3 mg/kg. In kind it is in vivo, Athymic nude mice. On the procedure:
as §1

A further experiment deals with MDA-MB-453. The experiment is described as follows: In vitro cytotoxic activity (Cell Titer Glo). In kind it is cell-based, human. The conditions noted are these: MDA-MB-453, 3 to 4 days; read-out: In vitro potency (EC50 in pM).
In another experiment the test system is ST455B model. The experiment can be described thus: PDX tumor model (triple-negative, HER2 IHC 1+). In kind it is in vivo, Athymic nude mice. The conditions noted are these: Bs2-4T at 3 mg/kg. The method, then:
as §1

The next experiment deals with T1, human EGFR (Homo sapiens, UniProt P00533).
T1 construct: recombinant extracellular domain proteins: human EGFR, human HER2, human HER3, human HER4, mouse Her2, or cynomolgus monkey Her2
The experiment can be described thus: Capture ELISA binding specificity / species cross-reactivity. The conditions noted are these: recombinant extracellular domain protein. The text has this:
(§2) To determine whether 39S retains the binding specificity and species cross-reactivity of its parental antibody AZ1.39.1, binding of 39S to the receptors of human ErbB family (EGFR, HER2, HER3, and HER4), the mouse Her2, and the cynomolgus monkey Her2 was examined by capture ELISA. Briefly, 96-well plates were coated with one of the following recombinant extracellular domain proteins: human EGFR, human HER2, human HER3, human HER4, mouse Her2, or cynomolgus monkey Her2. Antibody to be tested was prepared by diluting in a stepwise 1:3 serial dilution ranging from 50 nM down to 0.28 pM and then added to the wells in duplicate. After one hour of incubation, plates were washed, and goat anti-human IgG Fab HRP-conjugated secondary antibody was added to each well and the plates were incubated for 1 hour. The plates were washed and TMB substrate was added and incubated for 5-20 min to allow color development. The stop solution was added to the wells at the end of reaction and the plates were read at 450 nm. Binding signal (absorbance at 450 nm) was plotted against antibody concentration using Prism software.
(§3) Binding specificity and species cross-reactivity of bispecific antibodies to the recombinant extracellular domain protein of human EGFR, human HER2, human HER3, human HER4, mouse Her2, or cynomolgus monkey Her2 were determined by capture ELISA as described in Example 1.
(§4) To determine whether the conjugation of tubulysin 1508 alters antigen binding specificity and species cross-reactivity, binding activity of bispecific ADC to the recombinant extracellular domain protein of human EGFR, human HER2, human HER3, human HER4, mouse Her2, and cynomolgus monkey Her2 were confirmed by capture ELISA as described in Example 1.
For orientation: An ELISA detects its analyte on a solid surface through an enzyme-linked reagent.

In another experiment the test system is cynomolgus monkey Her2. Described as above. Conditions: recombinant extracellular domain protein.
Description: as §2, §3, §4

In another experiment the target is T2, human HER3 (Homo sapiens, UniProt P21860).
T2 construct: recombinant extracellular domain proteins: human EGFR, human HER2, human HER3, human HER4, mouse Her2, or cynomolgus monkey Her2
The experiment is described as above. The conditions noted are these: recombinant extracellular domain protein.
Description: as §2, §3, §4

In a further experiment the target is T3, human HER4 (Homo sapiens, UniProt Q15303).
T3 construct: recombinant extracellular domain proteins: human EGFR, human HER2, human HER3, human HER4, mouse Her2, or cynomolgus monkey Her2
T3 sequence (Q15303 26-651 limits assumed): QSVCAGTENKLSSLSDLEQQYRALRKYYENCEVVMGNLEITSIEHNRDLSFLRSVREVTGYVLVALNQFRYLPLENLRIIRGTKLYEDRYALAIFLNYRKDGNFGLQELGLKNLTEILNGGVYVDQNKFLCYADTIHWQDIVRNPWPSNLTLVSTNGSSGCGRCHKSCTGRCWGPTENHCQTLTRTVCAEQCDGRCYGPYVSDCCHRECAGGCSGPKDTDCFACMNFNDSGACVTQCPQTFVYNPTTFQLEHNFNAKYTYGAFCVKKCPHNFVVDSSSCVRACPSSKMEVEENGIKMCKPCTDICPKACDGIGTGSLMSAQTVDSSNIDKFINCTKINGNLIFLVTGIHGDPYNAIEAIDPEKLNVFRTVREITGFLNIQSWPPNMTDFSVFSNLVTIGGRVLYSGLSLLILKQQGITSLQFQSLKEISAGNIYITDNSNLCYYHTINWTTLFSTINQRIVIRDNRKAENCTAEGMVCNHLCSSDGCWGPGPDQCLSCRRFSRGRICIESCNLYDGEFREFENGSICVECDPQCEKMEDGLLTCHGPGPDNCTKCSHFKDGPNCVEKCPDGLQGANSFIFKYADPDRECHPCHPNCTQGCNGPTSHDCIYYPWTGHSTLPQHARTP
Described as above. Conditions: recombinant extracellular domain protein.
Description: as §2, §3, §4

A further experiment addresses HER2 (Homo sapiens, UniProt P04626). The experiment is described as follows: FACS-based binding competition assay with labeled 39S. More on the design: endogenous in cells; host or cells: BT-474. The conditions noted are these: BT-474 cells, 2 ug/mL labeled 39S. The method, then: BT-474 cells were harvested, resuspended in FACS buffer, and 2.5×10^5 cells/well were added to a 96-well U-bottom plate. […] After 1 hour of staining on ice, cells were washed 3 times with ice-cold FACS buffer and then fixed with 2% PFA. Cells were analyzed by a BD LSR II machine with BD FACSDiva™ software. Data were analyzed with FlowJo software and presented as mean MFI±SEM (n=3).

Description for MCF7-GTU: (§5) Briefly, cells were harvested, resuspended, and plated in serum-containing culture media at a density of 5,000 to 20,000 per well (depending on the growth kinetics of each cell line) of 96-well plates in a volume of 100 μL. A 2× concentration of each dose of antibody or ADC to be tested was prepared by diluting the test articles in culture medium. One hundred microliters of each test article was added to cells in triplicate such that the final dose curve ranged from 5 nM down to 0.08 pM in a stepwise 1:4 serial dilution series. The treated cells were incubated at 37° C./5% CO2 for 3 to 4 days, depending on the growth kinetics of each particular cell line. Cell viability was determined using Cell Titer Glo according to manufacturer's instructions. Data are analyzed by the GraphPad Prism software and presented as percent growth inhibition relative to the untreated control.
Description for MDA-MB-453: (§6) A panel of human cancer cell lines expressing various levels of HER2 was used to evaluate the cytotoxic activity of bispecific ADC (Table 5 in Example 1). Briefly, cells were harvested, resuspended, and plated in serum-containing culture media at a density of 5,000 to 20,000 per well (depending on the growth kinetics of each cell line) of 96-well plates in a volume of 100 μL. A 2× concentration of each dose of antibody or ADC to be tested was prepared by diluting the test articles in culture medium. One hundred microliters of each test article was added to cells in triplicate such that the final dose curve ranged from 5 nM down to 0.08 pM in a stepwise 1:4 serial dilution series. The treated cells were incubated at 37° C./5% CO2 for 3 to 4 days, depending on the growth kinetics of each particular cell line. Cell viability was determined using Cell Titer Glo according to manufacturer's instructions. Data are analyzed by the GraphPad Prism software and presented as percent growth inhibition relative to the untreated control. EC50 values were determined using Sigmoidal non-linear regression analysis with GraphPad Prism software and were summarized in Table 6.
Description for MDA-MB-468: as §5
Description for SKBR-3: as §6

The term EC50 denotes the concentration needed to bring the measured effect to its halfway point. As for T-DM1 [reference compound], the “in vivo activity (tumor growth)” value in the experiment on MDA-MB-361 model was “limited activity”; with ST225 model it was “tumor stasis”; in the experiment on ST455B model it was “no activity”. The “In vitro potency (EC50 in pM)” value in the experiment with MDA-MB-468 and in the experiment with MCF7-GTU was “Inactive” each time. Further, the results for the half-maximal effective concentration (EC50) in the experiment with SKBR-3 and in the experiment with MDA-MB-453 were 82.6 pM and 344 pM, respectively.

B1: 39S: lead optimized monoclonal antibody derived from the 1.39.1 antibody; VH SEQ ID NO:15, VL SEQ ID NO:16 (antibody, V domains shown)
VH: EVQLVESGGGLVKPGGSLRLSCAASGFTFSSYSMSWVRQAPGKGLEWVSSISSSSSYIYYADSVKGRFTISRDNAKNSLYLQMNSLRAEDTAVYYCARGGDAYNYYYFDYWGQGTLVTVSS
VL: DIVMTQTPLSLSVTPGQPASISCKSSQSVFFRSNNKNILAWYLQKPGQPPQLLIYWASSRESGVPDRFSGSGSGTDFTLKISRVEAEDVGVYYCQQYFGSPFTFGPGTKVDIK
On to B1, for which the “binding by capture ELISA” value in the experiment with human EGFR is “not”; in the experiment on cynomolgus monkey Her2, “can bind”; with human HER3 it was “not”; in the experiment with human HER4, “not”. In the experiment with HER2, the “competition for binding / epitope” value was “does not compete with trastuzumab or pertuzumab; also recorded: binds to the same epitope as its parental antibody AZ1.39.1”.
